Test results taken from PubChem BioAssay AID179 (DTP/NCI, 2004).
Active and inactive are the calls of the source.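 Rule for the calls: active = compounds giving half or more protection of infected cells from virus-caused growth loss, again on retest; inactive = the rest.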 Where a SMILES comes first, the peptide text is derived from it. [ ]: non-standard residue; d: D form. The star is where a group is joined. X10 = CC(C)CN(C[C@@H](O)[C@H](Cc1ccc(OCC(=O)*)cc1)NC(=O)O[C@H]1CCOC1)S(=O)(=O)c1ccc(N)cc1; NMeLeu(3R-OH) = CN[C@H](C(=O)O)[C@H](O)C(C)C; NMeL = CN[C@@H](CC(C)C)C(=O)O; NMeV = CN[C@H](C(=O)O)C(C)C; dNMeS = CN[C@H](CO)C(=O)O; Abu = CC[C@H](N)C(=O)O

Tested on: CEM cells HIV-1 protection, formazan growth assay
Assay: NCI AIDS Antiviral Assay
Conditions: for IC50: measured here: growth of uninfected CEM cells
Procedure, shortened: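 Human CEM cells, uninfected and HIV-1-infected, exposed to five drug concentrations; growth measured by soluble formazan assay and scored as percent protection from infection, with protecting compounds retested.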

SMILES | EC50 [µM] | IC50 [µM] | outcome
CC[C@@H]1NC(=O)[C@H]([C@H](O)C(C)C)N(C)C(=O)[C@H](C(C)C)N(C)C(=O)[C@H](CC(C)C)N(C)C(=O)[C@H](CC(C)C)N(C)C(=O)[C@@H](C)NC(=O)[C@H](CCCCNC(=O)COc2ccc(C[C@H](NC(=O)O[C@H]3CCOC3)[C@H](O)CN(CC(C)C)S(=O)(=O)c3ccc(N)cc3)cc2)NC(=O)[C@H](CC(C)C)N(C)C(=O)[C@H](C(C)C)NC(=O)[C@H](CC(C)C)N(C)C(=O)[C@@H](CO)N(C)C1=O (cyclo([NMeLeu(3R-OH)][Abu][dNMeS][NMeL]V[NMeL]K(X10)[dA][NMeL][NMeL][NMeV])) | 0.0501 | 42.7 | –
O=C1CCC2CCC(=O)N12 | > 1780 | > 1780 | –
COc1ccc2c(c1)[n+](=O)c(C(C)=O)c(C)n2[O-] | > 1000 | 355 | –
CC1(O)CC2C(CC1SCCO)C2(C)C (configuration not stated) | > 1070 | 631 | –
CCOC(=O)C1(C(=O)OCC)C(C(C)(C)C)=C(C)c2ccccc21 | > 50.1 | 20.4 | –
CCOC(=O)COc1ccc2c(C)c(CCN(CC)CC)c(=O)oc2c1 | > 631 | > 631 | –
O=C(O)c1ccc2nc(-c3ccccn3)c(-c3ccccn3)nc2c1 | > 200 | > 200 | –
COc1ccc(C[n+]2cccc(O)c2)cc1 | > 200 | 112 | –
CCOC(=O)C(=O)Nc1ccc(Cl)cc1C | > 389 | 331 | –
O=C(Nc1nc2ccccc2n1Cc1ccccc1)NC12CC3CC(CC(C3)C1)C2 | > 200 | > 200 | –
O=C(C(=O)n1ncc(Cl)c(Cl)c1=O)n1ncc(Cl)c(Cl)c1=O | > 93.3 | 50.1 | –
O=C(c1ccccc1)C1S(=O)(=O)OCCOS1(=O)=O | > 5130 | 3090 | –
O=C1c2cc3c(cc2CC1Cc1ccc2c(c1)CCC2)CCC3 (configuration not stated) | > 200 | 91.2 | –
CCCCCCC(/C=N/O)C(C)(O)CCC (configuration not stated) | > 112 | > 112 | –
O=C1Sc2ccccc2C(=O)N2CCCC12 (configuration not stated) | > 200 | > 200 | –
C[C@@H](NC(=O)Cn1c(Cl)nc2ccccc21)c1ccccc1 | > 200 | 13.5 | –
COc1cc(-c2nnc3n2NC=C(C(=O)O)S3)cc(OC)c1OC | > 257 | > 257 | –
O=C1CCCN(c2ccccc2)N1 | > 1410 | > 1410 | –
CC1=C2N3C[C@@H](n4c(=O)n(C)c(=O)n43)C23CCC1n1c(=O)n(C)c(=O)n13 | > 72.4 | > 72.4 | –
COc1ccccc1C1C2=C(COC2=O)Oc2cc3c(cc21)OCO3 (configuration not stated) | > 200 | 2.19 | –
Cc1cc2c(C)cc(=O)[nH]c2cc1N | > 200 | > 200 | –

SMILES | EC50 [µM] | IC50 [µM] | outcome
CCC(=O)c1cc(C(=O)C(=S)SC)cc(C(=O)C(=S)SC)c1 | 20 | 30.9 | –
CSc1nc2c(n1-c1ccccc1)C(=O)C(OS(=O)(=O)c1ccccc1)C(=O)N2 (configuration not stated) | > 200 | > 200 | –
NC(=O)N/N=C(/Cc1nc2ccc(C(=O)c3ccccc3)cc2[nH]c1=O)C(=O)Nc1ccc(C(F)(F)F)cc1[N+](=O)[O-] | – | – | inactive
COc1ccc(N2C(=O)/C(=C/c3ccc(N(CCC#N)CCC#N)cc3C)N=C2/C=C\c2ccccc2)cc1 | > 14.1 | > 14.1 | –
c1cnc2c(c1)-n1cccc1C1(CCCCC1)NN2 | > 200 | > 200 | –
CCOC(=O)c1ccc(-c2cccs2)[nH]1 | > 200 | 38.9 | –
Cc1ccc2c(c1)C(=O)N(CC[P+](c1ccccc1)(c1ccccc1)c1ccccc1)C2=O | > 200 | 30.9 | –
CC(C)c1cccc2sc(NC(=O)C(=O)C(C#N)c3cccc4ccccc34)nc12 (configuration not stated) | – | – | inactive
COC(=O)c1ccccc1CC1Cc2cccc(C)c2C1=O (configuration not stated) | > 200 | 53.7 | –
NC(=O)c1nnc2ccc(F)cc2c1N | > 200 | 70.8 | –
O=C(O)[C@@H]1CSCN1C(=O)c1cccnc1SSc1ncccc1C(=O)N1CSC[C@H]1C(=O)O | > 200 | > 200 | –
C[C@@]12C[C@@H](OC(=O)[C@]1(C)O)[C@@H]([C@]1(O)CC[C@H]3[C@@H]4C[C@H]5O[C@]56CC=CC(=O)[C@]6(C)[C@H]4CC[C@@]31C)C2 | 0.02 | 0.324 | –
CCCCN(CCCC)CC(C(=O)Nc1ccc([N+](=O)[O-])cc1[N+](=O)[O-])/C(C)=N\NC(=O)c1ccncc1 (configuration not stated) | > 56.2 | > 56.2 | –
C=CC1(CC[C@]2(c3ccc(OC)c(OC)c3)C=[N+]([O-])O[C@H](O[C@@H]3CCCC[C@H]3C(C)(C)c3ccccc3)C2)OCC(C)(C)CO1 | > 200 | 11.2 | –
Cc1cc2c(ccc3c(C)cc(=O)oc32)o1 | – | – | inactive
O=c1[nH]c(=O)n(COCc2ccccc2)c2ccsc12 | – | – | inactive
COc1ccc2c(c1)CCCN1Cc3cc(OC)c(OC)cc3CC21 (configuration not stated) | > 200 | 87.1 | –
COC(=O)C(C(=O)C(=O)Nc1ccc(OC)cc1[N+](=O)[O-])c1nc2cc(C)c(C)cc2[nH]c1=O (configuration not stated) | > 15.5 | > 15.5 | –
CC(=O)OCC1OC(OCCCOP(=S)(OCCC#N)OCC2OC(n3ccc(N)nc3=O)C(OC(=O)c3ccccc3)C2OC(=O)c2ccccc2)C(OC(C)=O)C(OC(C)=O)C1OC(C)=O (configuration not stated) | > 100 | > 100 | –
CCOC(=O)c1nc2ccc(Cl)cc2c2c1Cc1ccccc1-2 | > 20 | > 20 | –
Cc1cn(CCCCCCOC(=O)NC(CCCN=C(N)N)C(=O)O)c(=O)[nH]c1=O (configuration not stated) | > 200 | > 200 | –

SMILES | EC50 [µM] | IC50 [µM] | outcome
CN(C)NC(=S)Nc1ccccc1Br | > 200 | > 200 | –
O=C(OCC(OC(=O)c1ccccc1)C1CC(C2(O)CCCCC2)C(=O)O1)c1ccccc1 (configuration not stated) | > 50.1 | > 50.1 | –
O=C1OCSc2ccccc21 | > 1070 | 178 | –
C=C(C)[C@@H]1CC[C@]2(C(=O)O)CC[C@]3(C)[C@H](CCC4[C@@]5(C)CC[C@H](C(=O)/C=C/c6ccc(O)c(O)c6)C(C)(C)[C@@H]5CC[C@]43C)[C@@H]12 (some centres not stated) | > 200 | 2.29 | –
CCOC(=O)C[N+]1(C)C2CCC1CC(O)C2 (configuration not stated) | > 200 | > 200 | –
Cc1cc(C2(c3cc(C)c(O)c(Br)c3)OS(=O)(=O)c3ccccc32)cc(Br)c1O | > 200 | > 200 | –
Nc1ccn(CCOC(=O)c2ccccc2)c(=O)n1 | > 52.5 | > 52.5 | –
Cc1ccc(C2=Nc3c(c(C)nn3-c3ccccc3)N=C(C(=O)O)C2)cc1 | > 200 | 75.9 | –
O=c1[nH]c(=O)c2[nH]c(Cl)nc2[nH]1 | > 28.2 | > 28.2 | –
CCSCCCCCCCCCCC(=O)OCC1OC(n2cc(C)c(=O)[nH]c2=O)CC1O (configuration not stated) | > 56.2 | 26.3 | –
CC(CCC(=O)O)[C@H]1CCC2[C@@H]3CC(O)[C@@H]4CC(O)CC[C@]4(C)C3CC[C@@]21C (some centres not stated) | > 200 | 72.4 | –
CC(C)(C)OC(=O)/C=C/C(=O)O/C=C/[N+](=O)[O-] | > 200 | > 200 | –
S=C(SSC(=S)N(Cc1ccccc1)Cc1ccccc1)N(Cc1ccccc1)Cc1ccccc1 | > 200 | 15.1 | –
COC1/C=C/OC2(C)Oc3c(C)c(O)c4c(O)c(cc(OCC(=O)N(C)C5CCCCC5)c4c3C2=O)NC(=O)/C(C)=C/C=C/C(C)C(O)C(C)C(O)C(C)C(OC(C)=O)C1C (configuration not stated) | > 200 | 12.3 | –
COc1ccc(P2(=S)OCCOP(=S)(c3ccc(OC)cc3)S2)cc1 (configuration not stated) | > 117 | 3.98 | –
N#C/C(=C/NC(=S)Nc1ccc(S(N)(=O)=O)cc1)C(N)=O | > 200 | 178 | –
O=C1c2ccccc2C(=O)N1C/C(Cl)=C/Cl | > 200 | > 200 | –
COP1(=O)CC2C(Cl)(Cl)C2(C)C1 (configuration not stated) | – | – | inactive
COc1ccc2c(c1)OC(C)(C)C1c3c(cc(OC)c(O)c3C)OC21 (configuration not stated) | > 200 | 9.33 | –
Cc1[nH]c2ccccc2c1C1Cc2ccccc2N1C(=O)/C=C/C=C/c1ccccc1 (configuration not stated) | > 9.33 | > 9.33 | –
CCOC(=O)c1sc(SC)nc1NC(=O)c1ccccc1 | > 200 | > 200 | –

SMILES | EC50 [µM] | IC50 [µM] | outcome
N#Cc1ncn(CCO)c1N | > 200 | > 200 | –
COc1ccc(/C=C/C(=N/NC(=O)N/N=C(/C=C/c2ccc(OC)cc2)C(C)(C)CN2CCCCC2)C(C)(C)CN2CCCCC2)cc1 | > 200 | 2.09 | –
O/N=C(/CC(O)(C(F)(F)F)C(F)(F)F)c1ccccc1 | > 200 | > 200 | –
[C-]#[N+]CS(=O)(=O)c1ccc(C)cc1 | > 479 | > 479 | –
COC(=O)c1c(O)c2c(c3c1OC(C)(C)CC3)OC(C)(C)CC2 | > 200 | 93.3 | –
CC(C)/C(Cl)=N\OC(=O)Nc1cccc(Cl)c1 | > 200 | 5.01 | –
CC(C#N)(NO)C(C)(C#N)NO (configuration not stated) | > 200 | > 200 | –
CN=C1CN2OC(=O)N(C)C2(c2ccccc2)c2cc(Cl)ccc2N1 (configuration not stated) | > 112 | 41.7 | –
N#CC1C(=O)NC(=O)C(C#N)C12CCCc1sccc12 (configuration not stated) | > 871 | 832 | –
O=C(O)c1cc(CNc2ccc(/C=C/c3ccc(NCc4ccc(O)c(C(=O)O)c4)cc3S(=O)(=O)O)c(S(=O)(=O)O)c2)ccc1O | 102 | 263 | –
Clc1cc(Cc2cc(Cl)c(Cl)c3c2OCOC3)c2c(c1Cl)COCO2 | – | – | inactive
C=C(CC(=O)Nc1ccc(C(=O)OC)o1)C(=O)OC | > 200 | 3.89 | –
N#Cc1c(-c2ccccc2)cc(-c2ccccc2)[nH]c1=O | > 36.3 | > 36.3 | –
CCOC(=O)C(NC(C)=O)[CH](c1ccccc1)[Sn]([c]1ccccc1)([c]1ccccc1)[c]1ccccc1 (configuration not stated) | > 31.6 | 7.08 | –
CO/C=C1\CCC2c3c(c4ccccc4n3C)CC1N2Cc1ccccc1 (configuration not stated) | > 14.5 | 8.13 | –
[N-]=[N+]=Nc1c(Cl)c(Cl)nc2ccccc12 | > 200 | 61.7 | –
O=C1CN(Cc2ccccc2)CC(=O)N2Cc3ccccc3CN12 | – | – | inactive
COc1ccccc1NC(=S)N/N=C/c1ccccn1 | > 0.2 | 0.0955 | –
COc1ccc(Cl)cc1C(=O)c1cc(Cl)cc(S(=O)(=O)N(C)C)c1OC | > 9.12 | 8.13 | –
